Results published in US20090074885A1, “Reversible Hydrophobic Modification of Drugs for Improved Delivery to Cells” (Roche Madison Inc., priority 2003, published 2009).

Columns and labels:
[1] = test system: MC38 metastases and hepatic cells; experiment: Portal vein injection in tumor-bearing mice; format: in vivo, mouse
Experimental: For intraportal injections both the portal vein and the celiac artery were clamped to occlude blood flow into the liver. In other experiments, the portal vein and the celiac artery were not clamped, preserving full portal blood flow during the experiment. In all cases, the vena cava was not clamped in order to avoid increased pressure within the liver during the injection procedure. For experiments with occluded blood flow, the blood in the liver was flushed out with 1 ml of ITG delivered through the portal vein (1 min). Then 0.300 μmol of PI or II in 40 μl of DMF was delivered together with 400 μl of ITG via the mixing chamber. Five min after injection the livers were perfused with 3 ml of ITG to flush any drug remaining in the vasculature, and livers were sectioned as above or the hepatocytes were isolated.

[2] = Analysis of prodrug lability (rate of hydrolysis) of PI derivatives by fluorescent spectroscopy; format: physicochemical; settings: for Half-life: extrapolated to pure buffer (100 mol % H2O)
Experimental: Analysis of prodrug lability. The prodrugs were tested for their rate of hydrolysis at pH 6.0, 7.2 and 8.5 using fluorescent spectroscopy. Lability studies for C12CON-PI and RRH-PI (rapidly reversible hydrophobic-PI) derivatives were conducted on a Cary Eclipse Fluorescence Spectrophotometer (Varian Inc.).
To solutions of PI and RRH-prodrugs of PI (7.48 μM in DMSO) were added various amounts of buffer (25 μL, 50 μL, and 100 μL of 20 mM Hepes buffer) at different pH. Upon cleavage of the hydrophobic modification and regeneration of PI, the fluorescence of the solution increased (λex=493 nm, λem=647 nm, excitation and emission slit width=5 nm, and emission PMT=600V) and was assayed as a function of time (20 min).
The resulting curves were normalized for intensity and fit to an exponential equation (Origin) to determine kdetermined for each solution. The kdetermined for each compound at appropriate pH were plotted against the mol % of H2O, and the best fit line was solved for kbuffer for 100 mol % H2O. These derived kbuffer values were used to determine the half-life of the prodrug in pure buffer according to the equation t1/2=1n2/k.

Jurkat cells = experiment: Flow cytometry of prodrug delivery to Jurkat cells; format: cell-based, human
Experimental: For experiments conducted on Jurkat cells (8.0×10^5 cells/ml in media), the cells were isolated by centrifugation and resuspended in ITG at a density of 4.0×10^6 cells/ml. Exposure to the drug/prodrug was conducted by passing the cells in suspension in ITG (200 μl) through the mixing chamber. After 30 sec the cells were centrifuged and the drug solution was removed (aspirated), the cells were resuspended in complete media (2 ml) and plated in 6-well plates for imaging. Passing the cells through the mixing chamber (no drug/prodrug treatment) had no effect on cell viability when compared to cells plated without passing through the mixing chamber.
Flow cytometry was conducted on a FacsCalibur Flow Cytometer (Becton Dickinson Biosciences). Jurkat cells were isolated and treated with PI and II as previously described. After 4 min the cells were centrifuged and the drug solution was removed (aspirated) and 1 ml complete media was added to the cells. During analysis, PI was added to control cells (1 ml of 8.0×10^5 cells/ml in complete media, 1 drop of 1 mg/ml PI solution, no OS or mixing chamber) to determine normal cell senescence. Data were collected for a total of 10,000 events using Cell Quest™ (Becton Dickinson Biosciences), and analyzed with FlowJo (Tree Star Inc.) for single cell events (approximately 80% of events), and secondly for PI. For Jurkat cells treated with II, forward scatter was analogous to control cells, while side scatter increased approximately two fold. Reported data represents a histogram of PI intensity for single cell events from four independent preparations. Cells were considered PI positive at a value of 100 on the PI intensity axis of the histogram for the cell percentages described.

[3] = test system: Jurkat (human T-lymphocyte) cells; experiment: In vitro cellular uptake by fluorescence microscopy, Jurkat; format: cell-based; settings: FIG. 5B
Experimental: In Vitro cellular uptake of PI, RRH-PI compounds, and IV evaluated by fluorescence measurements. […] Adherent cells were plated at 2.5×10^5 cells/well on 6-well plates 24 h prior to testing. The growth media was removed from individual wells and the drug/prodrug was immediately added to the well with the mixing chamber. […] After 30 sec the drug solution was removed (aspirated) and 2 ml complete media was added to the cells. Experiments conducted with prodrug that was hydrolyzed prior to application to the cells followed a similar protocol, however the combined solution obtained after passing through the mixing chamber was collected and allowed to sit at ambient temperature for 5 min prior to application on the cells. Experiments conducted with Calcein AM (Invitrogen, 100 μl of 20 μM solution in complete media) followed a similar protocol for drug treatment (4 min treatment). Experiments conducted with SYTOX Green (Invitrogen) followed a similar protocol for drug treatment. […] Each condition was repeated in 2 or 3 wells, and the cells were immediately examined by microscopy. Fluorescent microscopy studies were conducted with a three laser LSM 510 confocal microscope, an Axiovert S100 fluorescent microscope, or an Axioplan2 fluorescent microscope (all Zeiss) equipped with filter sets for the rhodamine fluorescence channel (λex=BP 450/12, λem=LP 590 nm filter set) and the fluorescein fluorescent channel (λex=BP 546/90, λem=LP 515 nm filter set). Imaging was performed with an AxioCam digital camera (Zeiss), with AxioVision imaging software (V 4.5, Zeiss). For all images, identical camera settings and exposure times were used on comparative sample and control images. Images were processed with Photoshop (Adobe) for level and brightness using identical settings between sample and control images. For experiments conducted on Jurkat cells (8.0×10^5 cells/ml in media), the cells were isolated by centrifugation and resuspended in ITG at a density of 4.0×10^6 cells/ml. Exposure to the drug/prodrug was conducted by passing the cells in suspension in ITG (200 μl) through the mixing chamber. […]

[4] = test system: rapidly dividing hepatocytes; experiment: Mitosis of hepatocytes after 70% partial hepatectomy and portal vein delivery; format: in vivo, ICR mice; settings: 2 days after treatment, 0.150 μmol intraportal
Experimental: Delivery of RRH-PI to rapidly dividing cells results in a decrease in the number of cells in mitosis. […] Following the hepatectomy, PI or III (0.150 μmol, 220 μl total injection volume) were delivered to the liver via the portal vein using the mixing chamber. The abdominal cavity was closed in two layers with 4-0 Braunamid suture. After 48 h, the animals were sacrificed, the livers were harvested, formalin fixed, paraffin imbedded, sectioned, and H&E stained. […] Results are reported as the percentage of cells in metaphase (±standard deviation).

[5] = portal vein and celiac artery clamped (occluded blood flow)
[6] = cells suspended in ITG passed through mixing chamber with drug in DMSO

Structure (SMILES)	PI labeling after portal vein injection [1, 5]	PI labeling after portal vein injection ([1]; preserved portal blood flow)	PI labeling after portal vein injection ([1]; preserved portal blood flow, listed as BDMODS-PI)	k ([2]; pH 7.2)	Half-life ([2]; pH 7.2) [s]	Half-life ([2]; pH 7.2, listed as BDMODS-PI (II)) [s]	k ([2]; pH 8.5)	Half-life ([2]; pH 8.5) [s]	Half-life ([2]; pH 8.5, listed as BDMODS-PI (II)) [s]	PI positive cells (signal above 100) (Jurkat cells; [6]) [%]	cells stained [3] [%]	cellular uptake and staining [3]	hepatocytes in metaphase [4] [%]	nuclear staining after portal vein injection ([1]; 400 μl into portal vein of liver with MC38 metastases)	PI positive cells (signal above 100) (Jurkat cells; PI in aqueous solution, no OS, no mixing chamber (control)) [%]
CCCCCCCCCCCCCCCCCC[Si](C)(C)Nc1ccc2c(c1)c(-c1ccccc1)[n+](CCC[N+](C)(CC)CC)c1cc(N[Si](C)(C)CCCCCCCCCCCCCCCCCC)ccc21.[I-].[I-] [II, 3,8-bis[((dimethyl)octadecylsilazyl)amine] 5-(3,3-diethyl-3-methylammoniumpropyl) 6-phenyl phenanthridinium diiodide]	prominent labeling of portal structures and adjacent cells, including hepatocytes, but not of the metastases	all metastases were PI-negative	No labeled cells in MC38 metastases	(3.96 min^−1)	11	10.5	(1.80 min^−1)	23	23.1	99.5±0.1					
CCCCCCCCCCCCNC(=O)CCC(=CCC(=O)O)C(=O)Nc1ccc2c(c1)c(-c1ccccc1)[n+](CCC[N+](C)(CC)CC)c1cc(NC(=O)C(=CCC(=O)O)CCC(=O)NCCCCCCCCCCCC)ccc21.[I-].[I-] [III, 3,8-bis-[2-(2 carboxyethylidene)-4-(dodecarbamoyl)-1-oxo-butylamine] 5-(3,3-diethyl-3-methylammoniumpropyl) 6-phenyl phenanthridinium diiodide]				(5.05 min^−1)			(1.97 min^−1)				~100	strong cellular uptake and staining	2.3		
CC[N+](C)(CC)CCC[n+]1c(-c2ccccc2)c2cc(N)ccc2c2ccc(N)cc21.[I-].[I-] [PI, Propidium iodide, reference compound]	a few labeled cells									8.4±0.6		stained very few cells	7.0	did not result in nuclear staining of any structures	0.3±0.1
